From patent publication US6664231B1, “Anti-fungal peptides” (priority 1993, dated 2003)
≈ marks a conversion by molar mass, not a printed value. Square brackets hold non-standard residues; d marks the D form. Peptide text beside a SMILES is read from it. 1Nal = N[C@@H](Cc1cccc2ccccc12)C(=O)O

How the values were obtained:
[1] = tested on: Candida albicans SLU-1 strain; assay: Serum stability, anti-fungal activity after serum incubation by radial diffusion bioassay; assay type: in vitro ADME, rat or human serum
Protocol: (§1) For these serum stability experiments, peptides were prepared by solid phase peptide sythesis and purified to 94% or greater purity as described in Example 1. Blood was collected from metaphane anesthesized rats by aortic bleed into Vacutainer™ tubes and allowed to clot at room temperature for approximately 30 minutes, then centrifuged at 3000 rpm (about 1000×g) for 10 minutes at room temperature and the serum aspirated. In addition, frozen human serum (North American Biologics, Inc., Miami, Fla., cat. no. 2140, lot no. 94115) was thawed at room temperature and filtered through a 0.45 μm membrane before use.
(§2) A 1 mg/mL solution of an exemplary XMP peptide to be tested was added to an equal volume of either rat or human serum described above and maintained at 37° C. At 0, 1, 2, and 4 hours, 100 μL were removed and processed by solid phase extraction for HPLC analysis as follows. Serum samples were prepared for HPLC using C-18 Sep-Pak cartridges (1 mL cartridge with 100 mg of sorbent, Waters Corp., Milford, Mass.). One hundred μL of serum sample were added to an equal volume of 1% TFA and mixed for 30 seconds on a Vortex mixer. The sample was then applied to a C-18 Sep-Pak cartridge that had been conditioned by washing with 1 mL of methanol followed by 1 mL Milli-Q water. Weakly reed components were eluted by washing with 1 mL of 0. 1% TFA. The bound peptide was eluted with two volumes of 250 μL 80% acetonitrile/0.065% TFA.
(§3) The peptides identified and purified after serum incubation as described above were subjected to N-terminal peptide sequencing performed on an Applied Biosystems Model 477A/120A sequencer and to electrospray ionization mass spectrometry (ESI/MS) performed using a VG Biotech Bio-Q Mass Spectrometer. In addition, the peptides identified and purified after serum incubation as described above were also tested for their anti-fungal activity in a radial diffusion bioassay with Candida albicans SLU-1 strain as described in Example 2.

[2] = tested on: C. albicans (CA-1, Strain SLU-1); assay: Radial diffusion assay; assay type: cell-based, Candida albicans; conditions: pmoles of peptide added to well to achieve a 30 mm^2 zone, PROBIT analysis, crude or purified (P′) peptide
Procedure, shortened: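 Peptides, serially diluted 2-fold in D-PBS (top ~1 mg/mL), diffused 3 h at 37° C into pH 7.4 phosphate-buffered agarose seeded with 1×10^6 CFU/mL yeast, before overnight growth under a 6% Sabouraud overlayer. Net inhibition zones measured after Coomassie staining; PROBIT fit of log pmol vs area gave pmol for 30 mm^2.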

in vitro = in vitro ADME, rat or human serum; conditions: half-life of peptide in serum as detected by HPLC analysis; for half-life at 0.5 mg/mL: serum, read-out: HPLC Peptide in Serum t ½ (converted)
Protocol: as §1, §2
The material eluted from the Sep-Pak cartridge was analyzed on a Michrom Ultaafast Microprotein Analyzer equipped with a 150 mm×1 mm, 5μ particle, 300 Å pore C-8 Zorbax column. The column oven was set to 40° C., the flow rate was 100 μL/minute, and injection volumes were typically 5-10 μL. HPLC was performed using 5% acetonitrile/0.1% TFA in water as mobile phase A, and 80% acetonitrile/0.065% TFA as mobile phase B. The eluate was monitored spectiophotometrically at 214 nm. Peptide standards were dissolved in mobile phase A at 0. 1 mg/mL. The gradient was 25-35% B/10 minutes followed by a 5 minute wash step of 100% B and reequilibration at 25% B for 10 minutes.

[3] = tested on: C. albicans designated CA-1, Strain SLU-1; conditions: designated CA-1, Strain SLU-1, 18 h
Protocol: In each broth assay screening procedure, a colony of C. albicans designated CA-1, Strain SLU-1 that was received from the laboratories of G. Matuschak and A. Lechner, St. Louis University Hospital, St. Louis, Mo., where the strain was maintained, was inoculated into a tube containing 5 mL Sabouraud Dextrose broth (2% dextrose, 1% neopeptone) and incubated overnight at 37° C. with shaking. The overnight culture was diluted 1:50 into 5 mL of fresh broth and incubated for 3 hours at 37° C. Organisms were pelleted by centrifugation in a Beckman J-6M centrifuge for 5 minutes at 3000 rpm (1500×g) and the pellets were resuspended in 5 mL phosphate buffered saline (PBS) and the optical density at 570 nm was determined. On the basis of the determination that one OD unit equals 3×10^7 colony forming units/mL, yeast cells were diluted to 2×10^6 cells/mL in Sabouraud Dextrose broth.
Domain III peptides derived from or based on BPI to be screened were originally constituted in Dulbecco's-PBS, were diluted to 100 μg/mL in broth and were serially diluted 2-fold into wells of a 96 well sterile, flat bottom, non-pyrogenic tissue culture plate (Costar, Cambridge, Mass.). All assays were performed in triplicate. 2×10^5 organisms were added at 100 μl per well; final volume was 200 μL/well; the plate was incubated on a shaker at 37° C. for 18 hours; and the optical densities for each well were read at 590 nm. […] The broth assay data may be set out in terms of minimum inhibitory concentration (MIC), i.e. the lowest concentration required to reduce the optical density at 590 nm to below 0.1.

[4] = Serum stability, anti-fungal activity after serum incubation by radial diffusion bioassay; assay type: in vitro ADME, rat or human serum; conditions: Activity in Serum t ½ (hr.)
Protocol: as §1, §2, §3

CC[C@@H](C)[C@@H](NC(=O)[C@@H](C)NC(=O)[C@@H](Cc1c[nH]c2ccccc12)NC(=O)[C@@H](CCCCN)NC(=O)[C@H](N)CCCCN)C(=O)N[C@H](CCC(N)=O)C(=O)N[C@H](CC(C)C)C(=O)N[C@H](CCCCN)C(=O)N[C@H](CCCCN)C(N)=O [XMP.375] (H-[dK][dK][dW][dA][dI][dQ][dL][dK][dK]-NH2)
Activity in Serum t ½ (hr.) [1]: indefinite | C. albicans pmol/30 mm^2 zone [2]: 123 pmol/30 mm^2 zone | HPLC Peptide in Serum t ½ (hr.) (in vitro): indefinite

H-KSKVGYLIQLFHKK-NH2 [XMP.139]
minimum inhibitory concentration (MIC), lowest concentration required to reduce the optical density at 590 nm to below 0.1 [3]: 6.25 µg/mL | half-life at 0.5 mg/mL [4]: 10.6 h | C. albicans pmol/30 mm^2 zone [2]: 323 pmol/30 mm^2 zone

H-KSKVKFLIQLFHKK-NH2 [XMP.138]
minimum inhibitory concentration (MIC), lowest concentration required to reduce the optical density at 590 nm to below 0.1 [3]: 3.13 µg/mL | C. albicans pmol/30 mm^2 zone [2]: 257 pmol/30 mm^2 zone

CC[C@H](C)[C@H](NC(=O)[C@H](CC(C)C)NC(=O)[C@H](Cc1c[nH]c2ccccc12)NC(=O)CNC(=O)[C@@H](NC(=O)[C@H](CCCCN)NC(=O)[C@H](CO)NC(=O)[C@@H](N)CCCCN)C(C)C)C(=O)N[C@@H](CCC(N)=O)C(=O)N[C@@H](Cc1cccc2ccccc12)C(=O)N[C@@H](Cc1ccccc1)C(=O)N[C@@H](Cc1c[nH]cn1)C(=O)N[C@@H](CCCCN)C(=O)N[C@@H](CCCCN)C(N)=O [XMP.143] (H-KSKVGWLIQ[1Nal]FHKK-NH2)
minimum inhibitory concentration (MIC), lowest concentration required to reduce the optical density at 590 nm to below 0.1 [3]: 25.0 µg/mL (≈ 13.9 µM) | C. albicans pmol/30 mm^2 zone [2]: >2839 pmol/30 mm^2 zone

H-KSKVGWLIQWFHKK-NH2 [XMP.142]
minimum inhibitory concentration (MIC), lowest concentration required to reduce the optical density at 590 nm to below 0.1 [3]: 12.5 µg/mL | C. albicans pmol/30 mm^2 zone [2]: 1244 pmol/30 mm^2 zone

CC[C@@H](C)[C@@H](NC(=O)[C@@H](CCC(N)=O)NC(=O)[C@@H](CC(C)C)NC(=O)[C@@H](CCCCN)NC(=O)[C@H](N)CCCCN)C(=O)N[C@H](C)C(=O)N[C@H](Cc1c[nH]c2ccccc12)C(=O)N[C@H](CCCCN)C(=O)N[C@H](CCCCN)C(N)=O [XMP.376] (H-[dK][dK][dL][dQ][dI][dA][dW][dK][dK]-NH2)
Activity in Serum t ½ (hr.) [1]: indefinite | C. albicans pmol/30 mm^2 zone [2]: 138 pmol/30 mm^2 zone | HPLC Peptide in Serum t ½ (hr.) (in vitro): indefinite

CC[C@@H](C)[C@@H](NC(=O)[C@@H](CCC(N)=O)NC(=O)[C@@H](CC(C)C)NC(=O)[C@H](N)CCCCN)C(=O)N[C@H](CC(C)C)C(=O)N[C@H](Cc1c[nH]c2ccccc12)C(=O)N[C@H](CCCCN)C(=O)N[C@H](CCCCN)C(N)=O [XMP.374]
Activity in Serum t ½ (hr.) [1]: indefinite | C. albicans pmol/30 mm^2 zone [2]: 198 pmol/30 mm^2 zone | HPLC Peptide in Serum t ½ (hr.) (in vitro): indefinite

CC[C@H](C)[C@H](NC(=O)[C@H](CC(C)C)NC(=O)[C@@H](Cc1c[nH]c2ccccc12)NC(=O)[C@@H](CCCCN)NC(C)=O)C(=O)N[C@@H](CCC(N)=O)C(=O)N[C@@H](CC(C)C)C(=O)N[C@@H](Cc1ccccc1)C(=O)N[C@@H](Cc1c[nH]cn1)C(=O)N[C@H](CCCCN)C(=O)N[C@H](CCCCN)C(N)=O [XMP.364]
Activity in Serum t ½ (hr.) [1]: indefinite | C. albicans pmol/30 mm^2 zone [2]: 1,523 pmol/30 mm^2 zone | half-life at 0.5 mg/mL (in vitro): 25 h

CC[C@H](C)[C@H](NC(=O)[C@H](CC(C)C)NC(=O)[C@@H](Cc1c[nH]c2ccccc12)NC(=O)[C@H](N)CCCCN)C(=O)N[C@@H](CCC(N)=O)C(=O)N[C@@H](CC(C)C)C(=O)N[C@@H](Cc1ccccc1)C(=O)N[C@@H](Cc1c[nH]cn1)C(=O)N[C@H](CCCCN)C(=O)N[C@H](CCCCN)C(N)=O [XMP.363]
Activity in Serum t ½ (hr.) [1]: indefinite | C. albicans pmol/30 mm^2 zone [2]: 1,015 pmol/30 mm^2 zone | C. albicans pmol/30 mm^2 zone ([2]; listed as XMP.363P′): 741 pmol/30 mm^2 zone | half-life at 0.5 mg/mL (in vitro): 11.8 h
